Like-named read-outs stand apart in the source and are kept apart here.
How the values were obtained:
Format in all cases: in vivo
wild oat (Avena fatua) = assay: Test E pre-/postemergence plant response; conditions: scale 0 to 100, read-out: Plant response rating, Oat, Wild; for pest or weed control at 16 g/ha: 16 g ai/ha; for pest or weed control at 31 g/ha: 31 g ai/ha; for pest or weed control at 62 g/ha: 62 g ai/ha; for pest or weed control at 125 g/ha: 125 g ai/ha
Method in brief: (§1)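 Pre-emergence: seeds sown in silt loam soil and sprayed with test chemicals in a non-phytotoxic solvent/surfactant mix. Post-emergence: plants at 2–18 cm (1- to 4-leaf stage) in peat/vermiculite medium treated with the same formulation. Visual rating versus controls after 7–21 days, 0 (no effect) to 100 (complete control).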

kochia (Kochia scoparia) = assay: Test E pre-/postemergence plant response; conditions: Bassia scoparia, scale 0 to 100, read-out: Plant response rating, Kochia; for pest or weed control at 16 g/ha: 16 g ai/ha; for pest or weed control at 31 g/ha: 31 g ai/ha; for pest or weed control at 62 g/ha: 62 g ai/ha; for pest or weed control at 125 g/ha: 125 g ai/ha
Method in brief: as §1

[1] = system: wild buckwheat (Polygonum convolvulus); assay: Test E pre-/postemergence plant response; conditions: Fallopia convolvulus, scale 0 to 100, read-out: Plant response rating, Buckwheat, Wild; for pest or weed control at 16 g/ha: 16 g ai/ha; for pest or weed control at 31 g/ha: 31 g ai/ha; for pest or weed control at 62 g/ha: 62 g ai/ha; for pest or weed control at 125 g/ha: 125 g ai/ha
Method in brief: as §1

[2] = system: oilseed rape (Brassica napus); assay: Test E pre-/postemergence plant response; conditions: scale 0 to 100, read-out: Plant response rating, Oilseed Rape; for plant injury at 16 g/ha: 16 g ai/ha; for plant injury at 31 g/ha: 31 g ai/ha; for plant injury at 62 g/ha: 62 g ai/ha; for plant injury at 125 g/ha: 125 g ai/ha
Method in brief: as §1

Horseweed = assay: Test F postemergence plant response; conditions: scale 0 to 100
[3] = system: rice flatsedge (Cyperus iria); assay: Test G flooded paddy rice/weed plant response; conditions: Flood, 21 days, scale 0 to 100 (0 no effect, 100 complete control)
Excerpt: (§2) Three plastic pots (ca. 16-cm diameter) per rate were partially filled with sterilized Tama silt loam soil comprising a 35:50:15 ratio of sand, silt and clay and 2.6% organic matter. Separate plantings for each of the three pots were as follows. Seeds from the U.S. of monochoria (Monochoria vaginalis), small-flower umbrella sedge (Cyperus difformis), hardstem bulrush (Scirpus juncoides), and redstem (purple redstem, Ammannia coccinea), were planted into one 16-cm pot for each rate. Seeds from the U.S. of rice flatsedge (Cyperus iria), bearded sprangletop (Leptochloa fascicularis), one stand of 9 or 10 water seeded rice seedlings (Indica rice, Oryza sativa), and two stands of 3 or 4 transplanted rice seedlings (Oryza sativa cv. ‘Japonica—M202’) were planted into one 16-cm pot for each rate. Seeds from the U.S. of bamyardgrass (Echinochloa crus-galli), and late watergrass (Echinochloa oryzicola) were planted into one 16-cm pot for each rate. Plantings were sequential so that crop and weed species were at the 2.0 to 2.5-leaf stage at time of treatment.
(§3) Potted plants were grown in a greenhouse with day/night temperature settings of 30/27° C., and supplemental balanced lighting was provided to maintain a 16-hour photoperiod. Test pots were maintained in the greenhouse until test completion.
(§4) At time of treatment, test pots were flooded to 3 cm above the soil surface, treated by application of test compounds directly to the paddy water, and then maintained at that water depth for the duration of the test. Effects of treatments on rice and weeds were visually evaluated by comparison to untreated controls after 21 days. Plant response ratings, summarized in Table G, are based on a scale of 0 to 100 where 0 is no effect and 100 is complete control. A dash (-) response means no test result.

[4] = system: redstem (purple redstem, Ammannia coccinea); assay: Test G flooded paddy rice/weed plant response; conditions: Flood, 21 days, scale 0 to 100 (0 no effect, 100 complete control)
Excerpt: as §2, §3, §4

[5] = system: monochoria (Monochoria vaginalis); assay: Test G flooded paddy rice/weed plant response; conditions: Flood, 21 days, scale 0 to 100 (0 no effect, 100 complete control)
Excerpt: as §2, §3, §4

[6] = system: water seeded rice seedlings (Indica rice, Oryza sativa); assay: Test G flooded paddy rice/weed plant response; conditions: Flood, 21 days, scale 0 to 100 (0 no effect, 100 complete control)
Excerpt: as §2, §3, §4

[7] = system: barnyardgrass (Echinochloa crus-galli); assay: Test G flooded paddy rice/weed plant response; conditions: Flood, 21 days, scale 0 to 100 (0 no effect, 100 complete control)
Excerpt: as §2, §3, §4

Compound: Fc1cccc(Oc2ncc(Cl)cn2)c1-c1cc(C(F)F)on1 [Compound 55, 5-chloro-2-[2-[5-(difluoromethyl)-3-isoxazolyl]-3-fluorophenoxy]pyrimidine]
- pest or weed control at 16 g/ha (wild oat (Avena fatua); post-emergence, Postemergence): 10%
- pest or weed control at 31 g/ha (wild oat (Avena fatua); post-emergence, Postemergence): 15%
- pest or weed control at 62 g/ha (wild oat (Avena fatua); post-emergence, Postemergence): 40%
- pest or weed control at 125 g/ha (wild oat (Avena fatua); post-emergence, Postemergence): 50%
- pest or weed control at 16 g/ha (wild oat (Avena fatua); pre-emergence, Preemergence): 0%
- pest or weed control at 31 g/ha (wild oat (Avena fatua); pre-emergence, Preemergence): 15%
- pest or weed control at 62 g/ha (wild oat (Avena fatua); pre-emergence, Preemergence): 35%
- pest or weed control at 125 g/ha (wild oat (Avena fatua); pre-emergence, Preemergence): 45%
- pest or weed control at 16 g/ha (kochia (Kochia scoparia); post-emergence, Postemergence): 65%
- pest or weed control at 31 g/ha (kochia (Kochia scoparia); post-emergence, Postemergence): 70%
- pest or weed control at 62 g/ha (kochia (Kochia scoparia); post-emergence, Postemergence): 85%
- pest or weed control at 125 g/ha (kochia (Kochia scoparia); post-emergence, Postemergence): 85%
- pest or weed control at 16 g/ha (kochia (Kochia scoparia); pre-emergence, Preemergence): 55%
- pest or weed control at 31 g/ha (kochia (Kochia scoparia); pre-emergence, Preemergence): 100%
- pest or weed control at 62 g/ha (kochia (Kochia scoparia); pre-emergence, Preemergence): 100%
- pest or weed control at 125 g/ha (kochia (Kochia scoparia); pre-emergence, Preemergence): 100%
- pest or weed control at 16 g/ha ([1]; post-emergence, Postemergence): 65%
- pest or weed control at 31 g/ha ([1]; post-emergence, Postemergence): 95%
- pest or weed control at 62 g/ha ([1]; post-emergence, Postemergence): 95%
- pest or weed control at 125 g/ha ([1]; post-emergence, Postemergence): 95%
- pest or weed control at 16 g/ha ([1]; pre-emergence, Preemergence): 65%
- pest or weed control at 31 g/ha ([1]; pre-emergence, Preemergence): 100%
- pest or weed control at 62 g/ha ([1]; pre-emergence, Preemergence): 100%
- pest or weed control at 125 g/ha ([1]; pre-emergence, Preemergence): 100%
- plant injury at 16 g/ha ([2]; post-emergence, Postemergence): 75%
- plant injury at 31 g/ha ([2]; post-emergence, Postemergence): 75%
- plant injury at 62 g/ha ([2]; post-emergence, Postemergence): 90%
- plant injury at 125 g/ha ([2]; post-emergence, Postemergence): 95%
- plant injury at 16 g/ha ([2]; pre-emergence, Preemergence): 20%
- plant injury at 31 g/ha ([2]; pre-emergence, Preemergence): 100%
- plant injury at 62 g/ha ([2]; pre-emergence, Preemergence): 100%
- plant injury at 125 g/ha ([2]; pre-emergence, Preemergence): 100%
- Plant response rating, Horseweed (Horseweed; 31 g ai/ha Postemergence): 15
- Plant response rating, Horseweed (Horseweed; 62 g ai/ha Postemergence): 20
- Plant response rating, Flatsedge, Rice ([3]; 32 g ai/ha): 85
- Plant response rating, Flatsedge, Rice ([3]; 64 g ai/ha): 100
- Plant response rating, Flatsedge, Rice ([3]; 125 g ai/ha): 100
- Plant response rating, Flatsedge, Rice ([3]; 250 g ai/ha): 100
- Plant response rating, Redstem ([4]; 32 g ai/ha): 85
- Plant response rating, Redstem ([4]; 64 g ai/ha): 95
- Plant response rating, Redstem ([4]; 125 g ai/ha): 100
- Plant response rating, Redstem ([4]; 250 g ai/ha): 100
- Plant response rating, Monochoria ([5]; 32 g ai/ha): 100
- Plant response rating, Monochoria ([5]; 64 g ai/ha): 100
- Plant response rating, Monochoria ([5]; 125 g ai/ha): 100
- Plant response rating, Monochoria ([5]; 250 g ai/ha): 100
- Plant response rating, Rice, Water Seeded ([6]; 32 g ai/ha): 45
- Plant response rating, Rice, Water Seeded ([6]; 64 g ai/ha): 100
- Plant response rating, Rice, Water Seeded ([6]; 125 g ai/ha): 100
- Plant response rating, Rice, Water Seeded ([6]; 250 g ai/ha): 100
- Plant response rating, Barnyardgrass ([7]; 32 g ai/ha): 0
- Plant response rating, Barnyardgrass ([7]; 64 g ai/ha): 75
- Plant response rating, Barnyardgrass ([7]; 125 g ai/ha): 100
- Plant response rating, Barnyardgrass ([7]; 250 g ai/ha): 100

Reference: patent publication US10131652B2, “Pyrimidinyloxy benzene derivatives as herbicides” (E. I. DU PONT DE NEMOURS AND COMPANY, priority 2014, dated 2018)
